Measured values taken from PubChem BioAssay AID222 (DTP/NCI, 2004).
Several values for one entry are separate records, joined by “and”; a condition that tells them apart may be missing. Equal entries are not always repeated. Toxic doses and inconclusive results are not listed.

System: C57BL/6 mice, intracerebral ependymoblastoma, median survival T/C
Test: NCI In Vivo Anticancer Drug Screen. Data for tumor model Ependymoblastoma (intracerebral) in C57BL/6 mice
Conditions: endpoint: median survival time, vehicle: Klucel (hydroxypropylcellulose) (HPC), higher = longer survival
Protocol: The antitumor activity of compounds was measured in mice bearing transplantable tumors. Survival or tumor size were measured and the results are expressed as the measurement made in the treated group (T) divided by the measurement made in the vehicle treated control group (C). The tumor model used in this assay is Ependymoblastoma (intracerebral) in C57BL/6 mice

| SMILES | T/C (dose: 8.0 mg/kg/injection, schedule: Q01DX001 (ip)) | T/C (dose: 8.0 mg/kg/injection, schedule: Q01DX005 (oral)) | T/C (dose: 16.0 mg/kg/injection, schedule: Q01DX001 (ip)) | T/C (dose: 16.0 mg/kg/injection, schedule: Q01DX001 (oral)) | T/C (dose: 16.0 mg/kg/injection, schedule: Q01DX005 (oral)) | T/C (dose: 32.0 mg/kg/injection, schedule: Q01DX001 (ip)) | T/C (dose: 32.0 mg/kg/injection, schedule: Q01DX001 (oral)) | T/C (dose: 32.0 mg/kg/injection, schedule: Q01DX005 (oral)) | T/C (dose: 64.0 mg/kg/injection, schedule: Q01DX001 (ip)) | T/C (dose: 64.0 mg/kg/injection, schedule: Q01DX001 (oral)) | T/C (dose: 128.0 mg/kg/injection, schedule: Q01DX001 (ip)) | T/C (dose: 128.0 mg/kg/injection, schedule: Q01DX001 (oral)) | T/C (dose: 256.0 mg/kg/injection, schedule: Q01DX001 (ip)) | T/C (dose: 256.0 mg/kg/injection, schedule: Q01DX001 (oral)) | T/C (dose: 512.0 mg/kg/injection, schedule: Q01DX001 (ip)) | T/C (dose: 512.0 mg/kg/injection, schedule: Q01DX001 (oral)) | T/C (dose: 32.0 mg/kg/injection, schedule: Q01DX005 (ip)) | T/C (dose: 64.0 mg/kg/injection, schedule: Q01DX005 (ip)) | T/C (dose: 128.0 mg/kg/injection, schedule: Q01DX005 (ip)) |
| --- | --- | --- | --- | --- | --- | --- | --- | --- | --- | --- | --- | --- | --- | --- | --- | --- | --- | --- | --- |
| O=NN(CCCl)C(=O)NC1CCCCC1 | 106 % of control | 155 % of control | 105 % of control | 111 % of control | 311 % of control | 98 % of control and 111 % of control | 113 % of control | 310 % of control | 104 % of control and 106 % of control | 113 % of control | 95 % of control | 100 % of control | 108 % of control | 104 % of control | 95 % of control | 97 % of control |  |  |  |
| CC(C)=CCC1=C(O)c2ccccc2C(=O)C1=O |  |  |  |  |  |  |  |  |  |  |  |  |  |  |  |  | 100 % of control | 94 % of control | 97 % of control |
